Values of other authors, collected in patent publication US12678435B2, “Prevention and/or treatment of contrast-induced acute kidney injury” (Saghmos Therapeutics Inc., priority 2016, dated 2026).

Tested on: patients with high serum creatinine levels undergoing coronary angiography/angioplasty
Conditions: four Phase 2 clinical trials; compared with isotonic saline; published in Onbasili 2007, Rahman 2012, Shehata 2014, Liu 2015

COc1ccc(CN2CCNCC2)c(OC)c1OC [Trimetazidine]
reducing the risk of contrast-induced nephropathy (CIN): more effective than isotonic saline in reducing the risk of contrast-induced nephropathy (CIN)
